Assay results from the supplement of paper PMC10307832.

Key:
Assay in all cases: relative viability (nuclei count vs DMSO), 5 days (fraction); higher = more cells survive
[1] = compound: CC(O)(CS(=O)(=O)c1ccc(F)cc1)C(=O)Nc1ccc(C#N)c(C(F)(F)F)c1 [Bicalutamide] + COc1cc2c(Oc3ccc(NC(=O)C4(C(=O)Nc5ccc(F)cc5)CC4)cc3F)ccnc2cc1OCCCN1CCOCC1 [Foretinib] (partner 0.25 µM)
Procedure, shortened: (§1)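 Lung cancer cell lines in 1536-well plates got either a single drug or a fixed anchor-drug dose together with five library-drug doses (not always all listed) in √10 steps, by pin tool, on the day after seeding. Nuclei were counted after 5 days, and relative viability is the treated-to-vehicle ratio of nuclei counts. Values are medians of duplicate plates.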

[2] = compound: CC(O)(CS(=O)(=O)c1ccc(F)cc1)C(=O)Nc1ccc(C#N)c(C(F)(F)F)c1 [Bicalutamide] + CC(C)C[C@H](NC(=O)[C@H](Cc1ccccc1)NC(=O)c1cnccn1)B(O)O [Bortezomib] (partner 0.002 µM)
Procedure, shortened: as §1

[3] = compound: C(C(=O)C(=O)O)Br [Bromopyruvate] + Cc1cc(Nc2cc(N3CCN(C)CC3)nc(Sc3ccc(NC(=O)C4CC4)cc3)n2)n[nH]1 [Tozasertib] (partner 0.1 µM)
Procedure, shortened: as §1

[4] = compound: CC(O)(CS(=O)(=O)c1ccc(F)cc1)C(=O)Nc1ccc(C#N)c(C(F)(F)F)c1 [Bicalutamide] + C[C@]1(O)C[C@@H](c2nc(-c3ccc4ccc(-c5ccccc5)nc4c3)c3c(N)nccn32)C1 [Linsitinib] (partner 1 µM)
Procedure, shortened: as §1

Row | Cell Line | relative viability ([1]; first compound 0.08 µM) | relative viability ([1]; first compound 0.253 µM) | relative viability ([1]; first compound 0.8 µM) | relative viability ([1]; first compound 2.53 µM) | relative viability ([2]; first compound 0.08 µM) | relative viability ([2]; first compound 0.253 µM) | relative viability ([2]; first compound 0.8 µM) | relative viability ([2]; first compound 2.53 µM) | relative viability ([3]; first compound 1 µM) | relative viability ([3]; first compound 3.162 µM) | relative viability ([3]; first compound 10 µM) | relative viability ([3]; first compound 31.62 µM) | relative viability ([3]; first compound 100 µM) | relative viability ([4]; first compound 0.08 µM) | relative viability ([4]; first compound 0.253 µM) | relative viability ([4]; first compound 0.8 µM) | relative viability ([4]; first compound 2.53 µM)
1 | 201T | 1.01 | 1.02 | 0.892 | 1.09 | 1.1 | 1.06 | 1.08 | 1.12 | 0.916 | 0.954 | 0.99 | 1.02 | 0.982 | 1.04 | 1.02 | 1.07 | 1.04
2 | A549 | 0.907 | 1.02 | 1.01 | 0.927 |  |  |  |  |  |  |  |  |  | 0.567 | 0.531 | 0.696 | 0.527
3 | A-427 | 1.08 | 1.03 | 1.09 | 1.05 | 1.04 | 1.12 | 1 | 0.93 | 0.22 | 0.216 | 0.176 | 0.162 | 0.151 | 1.16 | 1.15 | 1.21 | 1.18
4 | ABC-1 | 0.987 | 1.05 | 1.18 | 1.24 | 0.311 | 0.232 | 0.328 | 0.319 | 0.178 | 0.195 | 0.155 | 0.146 | 0.166 | 0.912 | 0.889 | 0.768 | 0.861
5 | BEN | 0.604 | 0.609 | 0.791 | 0.682 | 0.847 | 0.667 | 1.18 | 0.917 | 0.556 | 0.558 | 0.426 | 0.499 | 0.402 | 1.04 | 0.802 | 1.26 | 0.966
6 | CAL-12T | 1.11 | 1.04 | 1.32 | 1.13 | 0.942 | 0.858 | 1.12 | 0.768 | 0.362 | 0.589 | 0.242 | 0.294 | 0.308 | 0.69 | 0.777 | 1.04 | 0.814
7 | COR-L23 | 1.04 | 0.981 | 1.12 | 1.02 | 1.09 | 0.862 | 1.13 | 0.926 | 0.198 | 0.202 | 0.183 | 0.204 | 0.0755 | 0.997 | 0.919 | 1.16 | 0.732
8 | COR-L 105 | 1.35 | 0.976 | 0.859 | 0.784 | 0.761 | 0.87 | 0.98 | 0.501 | 0.36 | 0.34 | 0.279 | 0.352 | 0.435 | 0.941 | 0.93 | 0.899 | 0.815
9 | Calu-6 | 0.931 | 0.916 | 0.853 | 0.843 | 1.08 | 0.857 | 1.05 | 0.922 |  |  |  |  |  | 0.972 | 0.999 | 1.12 | 0.98
10 | ChaGo-K-1 | 0.897 | 0.748 | 0.937 | 0.825 | 0.973 | 1.05 | 1.17 | 0.864 | 0.234 | 0.263 | 0.247 | 0.216 | 0.205 |  |  |  | 
11 | EBC-1 | 0.0878 | 0.115 | 0.0994 | 0.121 | 0.584 | 0.537 | 0.592 | 0.477 |  |  |  |  |  | 0.874 | 0.874 | 1.05 | 0.858
12 | EKVX | 0.749 | 0.757 | 0.95 | 0.752 | 0.994 | 1.1 | 1.37 | 0.952 | 0.427 | 0.391 | 0.458 | 0.377 | 0.421 | 1.06 | 1.04 | 1.06 | 0.894
13 | EMC-BAC-2 | 1.02 | 0.867 | 1.02 | 0.928 | 1.04 | 0.968 | 1.15 | 0.929 | 0.295 | 0.289 | 0.317 | 0.267 | 0.314 | 0.854 | 0.796 | 0.803 | 0.756
14 | EPLC-272H | 0.606 | 0.841 | 0.817 | 0.679 | 0.873 | 0.666 | 0.904 | 0.894 | 0.257 | 0.372 | 0.241 | 0.325 | 0.215 | 1.17 | 1.13 | 1.33 | 1.16
15 | H3255 | 0.901 | 0.827 |  | 0.84 | 0.798 | 0.632 | 0.783 | 0.698 | 0.613 | 0.771 | 0.686 | 0.702 | 0.829 | 0.949 | 0.848 | 1.08 | 0.867
16 | HARA | 0.931 | 0.836 | 1.17 | 0.897 | 1.15 | 1.02 | 1.14 | 1.22 | 0.13 | 0.122 | 0.0899 | 0.13 | 0.102 | 0.953 | 0.797 | 1.06 | 1.1
17 | HCC-15 | 1.04 | 0.952 | 1.12 | 1.02 | 1.03 | 0.953 | 1.21 | 0.983 | 0.393 | 0.546 | 0.286 | 0.371 | 0.399 | 0.826 | 0.837 | 0.932 | 0.969
18 | HCC-44 |  |  |  |  | 0.936 | 0.953 | 0.961 | 0.989 | 0.953 | 1 | 0.997 | 1.02 | 0.882 | 0.67 | 0.664 | 0.691 | 0.788
19 | HCC-78 | 0.566 | 0.543 | 0.55 | 0.52 | 0.498 | 0.504 | 0.479 | 0.556 | 0.375 | 0.404 | 0.481 | 0.311 | 0.536 | 0.585 | 0.462 | 0.599 | 0.445
20 | HCC-366 | 0.937 | 0.842 | 0.919 | 0.995 | 1.04 | 1.02 | 1.43 | 1.04 | 0.136 | 0.142 | 0.0931 | 0.12 | 0.0884 | 0.659 | 0.541 | 0.905 | 0.624
